The text below walks through data of patent US20260000642A1 (Tay Therapeutics Limited, priority 2022, published 2026).

Series [1] can be described thus: Plasma stability assay, rat plasma. Conditions: 37° C. The format is in vitro ADME. How it is done:
Exemplary compounds of the disclosure are stable upon incubation in mouse plasma. Stability is expressed as a % remaining after 120 minutes. The experimental methods and results (Table 2) are provided hereinafter.
Plasma Stability Assay, Method 1
From stock solution of compound in 10 mM DMSO, a working solution of 1 mM is prepared by diluting the compound in DMSO. To 398 μL of plasma pre-warmed at 37° C. for 15 minutes), 2 μL of working solution of compound is added, resulting in a final concentration of 5 μM (0.5% DMSO) for the compound. The sample is then incubated at 37° C. Aliquot is withdrawn at specified time-points (0, 15, 30, 60 and 120 mins). The reaction is stopped by addition of 450 μL cold acetonitrile containing internal standard (IS). […] Aliquots of the supernatant is analysed using LC-MS/MS. The percent remaining of the compound at each time point is calculated with respect to the control sample (0 min time-point).
Plasma Stability Assay, Method 2
A working solution of compound (500 μM) is prepared in DMSO (100%). To 735 μL of plasma, 15 μL of working solution of compound is added—resulting in a final concentration of 10 μM (2% DMSO) for the compound. The sample is then incubated at 37° C. Aliquot is withdrawn at time-points—0, 15, 30, 60, 90 and 120 mins. The reaction is stopped by using chilled acetonitrile containing internal standard (IS). The samples are centrifuged and the supernatants analyzed using LC-MS/MS. The percent remaining of the compound at each time point is calculated with respect to the control sample (0 min time-point).

The target of another series is T1, BRD4 BD1 (Homo sapiens, UniProt O60885).
T1 construct: HEK293 cells were transfected using NanoLuc-BRD4-BD1 or NanoLuc-BRD4-BD2 fusion vectors; host or cells: HEK293
Description: NanoBRET bromodomain assay, NanoLuc-BRD4-BD1 fusion vector in HEK293 cells. The format is cell-based. Particulars: top concentration 10 μM. An excerpt: (§1) Bromodomain Assay Procedure

Series [2] is described as follows: Thermodynamic solubility in FaSSIF pH 6.5 buffer. The format is physicochemical. Conditions: thermodynamic from solid, FaSSIF pH 6.5, 25° C., Method 2 (LCMS). An excerpt:
BET protein inhibitors with a high aqueous solubility are in some embodiments promising oral drug candidates. Some of the exemplary compounds of the current disclosure have high solubility (measured in μM) in Fasted State Simulated Intestinal Fluid (FaSSIF) pH 6.5 buffer. The experimental methods and results (Table 4) are provided hereinafter.
Thermodynamic Solubility Assay, Method 1
FaSSIF v2 buffer is freshly prepared prior to use according to the suppliers' instructions and the pH adjusted to 6.5 using 1 M NaOH or 1 M HCl as required. From 1 mM working solution of test compound in DMSO, the λmax of the test compound is determined by scanning from 200 nm to 700 nm, in 1 nm steps with an EPOCH UV/Visible spectrophotometer (Biotek Instruments Inc.). A 12-point standard curve of compound concentration versus absorption at λmax is generated via two-fold serial dilutions of the 1 mM working solution with DMSO. Approximately 1 mg of test compound is accurately weighed into an Eppendorf tube and the appropriate volume of FaSSIF buffer is added to make a nominal concentration of 1 mg/mL. […]
FaSSIF buffer was prepared according to the suppliers' instructions and the pH adjusted to 6.5 using 1 M NaOH or 1 M HCl as required. […] The concentration of the test compound in the filtrate was determined by LCMS analysis with reference to the internal standards to determine the solubility in the buffer.

A further series has as its target T2, BRD4 BD2 (Homo sapiens, UniProt O60885).
T2 construct: HEK293 cells were transfected using NanoLuc-BRD4-BD1 or NanoLuc-BRD4-BD2 fusion vectors; host or cells: HEK293
Description: NanoBRET bromodomain assay, NanoLuc-BRD4-BD2 fusion vector in HEK293 cells. The class given is cell-based. Conditions: NanoBRET, HEK293 cells, top concentration 10 μM.
Description: as §1

A short description of series [3]: Sprague-Dawley rat pharmacokinetics (IV and PO). The format is in vivo. Conditions: rat, plasma; male Sprague-Dawley rats, PO 5 mg/kg (IV 1 mg/kg), cassette mode, Method 1; read-out: PO F (%). An excerpt:
BET protein inhibitors with a long half-life and good oral bioavailability in in vivo DMPK parameters are promising oral drug candidates. Some of the exemplary compounds of the current disclosure have a long half-life and good oral bioavailability in in vivo DMPK parameters in the Sprague-Dawley rat following intravenous (IV) and oral (PO) dosing. The experimental methods and results (Table 5) are provided hereinafter.
Sprague-Dawley Rat Pharmacokinetics, Method 1
Compounds were formulated in 5% DMSO, 40% PEG-400, 55% Milli-Q water at a concentration of 0.2 mg/mL for IV and at 0.5 mg/mL for PO. Two male Sprague-Dawley rats per arm were dosed with up to 5 compounds in cassette mode, which each compound being dosed at 1 mg/kg IV and 5 mg/kg PO. Blood was sampled at various timepoints and plasma isolated. 50 μL of plasma with 5 μL of blank Sprague-Dawley rat plasma were added to 200 μL of acetonitrile containing IS mixture. The samples were vortexed for 30 s. After centrifugation at 4 degrees Celsius, 3900 rpm for 15 min, the supernatant was diluted 3 times with water. 20 μL of diluted supernatant was injected into the LC/MS/MS system for quantitative analysis and concentration of analyte determined by comparison with matrix matched standard curve. WinNonlin (Phoenix™, version 8.3) or other similar software may be used for pharmacokinetic calculations.

A short description of series [4]: Intrinsic clearance in liver microsomes, rat. The format is in vitro ADME. Particulars: pH 7.4, rat liver microsomes 0.5 mg/mL, Method 1, read-out: Half-Life (T1/2) (min) Rat. The protocol:
(§2) BET protein inhibitors with a long half-life in liver microsomes from various species are in some embodiments promising oral drug candidates. Some of the exemplary compounds of the current disclosure have a long half-life in liver microsomes, expressed in minutes. The experimental methods and results (Table 3) are provided hereinafter.
(§3) Intrinsic Clearance in Liver Microsomes Assay, Method 1
(§4) From stock solution of compound on 10 mM DMSO, a working solution of 0.1 mM is prepared by diluting the compound in DMSO. 6.25 μL of a 20 mg/mL solution of microsomes in PBS pH 7.4 buffer is added to 216.25 μL PBS pH 7.4 buffer (final microsome concentration—0.5 mg/mL). 25 μL of 10 mM solution of NADPH in PBS pH 7.4 buffer is added to the incubations (final NADPH concentration—1 mM). The mixture is pre-warmed to 37° C. for 10 minutes. 2.5 μL of test compound working solution is added (final compound concentration—1 μM with 1% DMSO). […] The percent compound remaining at each time point is calculated with respect to that of the 0.5 min sample. The data are analysed to calculate half-life. […]
(§5) A 50 mM stock solution (in DMSO) is prepared for the compound. […] The samples are centrifuged, and the supernatants analysed by LC-MS/MS. The percent compound remaining at each time point is calculated with respect to that of the 0 min sample. The data are then analysed to calculate half-life and intrinsic clearance (CLint). […]
(In general: Microsomes from liver hold many membrane-bound enzymes, among them those of drug oxidation.)

Series [5] can be described thus: Plasma stability assay, human plasma. The class given is in vitro ADME. Conditions: 37° C., Method 1 (5 μM).
Series [6] in a line: Intrinsic clearance in liver microsomes, mouse. Conditions: pH 7.4, mouse liver microsomes 0.5 mg/mL, Method 1, read-out: Half-Life (T1/2) (min) Mouse. The class given is in vitro ADME. How it is done: as §2, §3, §4, §5

In brackets after ≈: the same amount, converted by molar mass.

`CNC(=O)c1[nH]c(C(=O)NC2CCC(O)CC2)cc1OC(C)c1ccc(Cl)cc1` (single isomer, unassigned) [Example 29, 3-(1-(4-chlorophenyl)ethoxy)-N^5-(4-hydroxycyclohexyl)-N^2-methyl-1H-pyrrole-2,5-dicarboxamide]: the “Plasma Stability (% remaining at 120 minutes) Rat” value in series [1] (Method 2 (10 μM)) is given as 89%. Moreover, the results for the IC50 against BRD4 BD1 and against BRD4 BD2 were no less than 10000 nM and 50 to 200 nM, respectively. Also, the thermodynamic solubility (usually solubility found after equilibrating the solid with the medium) in series [2] stood at 1230 µM (≈ 516 µg/mL).

As for `CNC(=O)c1[nH]c(C(=O)N[C@H]2CC[C@H](O)CC2)cc1O[C@@H](C)c1ccccc1` (single isomer, unassigned) [Example 97], the “Plasma Stability (% remaining at 120 minutes) Rat” value in series [1] (Method 1 (5 μM)) is given as greater than 99%. Moreover, the bioavailability in series [3] was 60%. Also, the results for the half-life at 1 μM in series [4] and in series [6] were greater than 60 min and 70 min, respectively. The “Plasma Stability (% remaining at 120 minutes) Human” value in series [5] is recorded as greater than 99%.
